Test results reported in ChEMBL document CHEMBL1158317, “Porrigenins A and B, novel cytotoxic and antiproliferative sapogenins isolated from Allium porrum” (J Nat Prod, 1997).
Converted amounts (≈) assume the structure as drawn.

Legend:
Assay type in all cases: functional, cell-based
[1] = system: IGR-1; assay: Antiproliferative activity against human IGR-1 cells after 48 hrs by MTT assay; conditions: IGR-1, 48 h
[2] = system: IGR-1; assay: Antiproliferative activity against human IGR-1 cells after 72 hrs by MTT assay; conditions: IGR-1, 72 h
[3] = system: J774; assay: Cytotoxicity against mouse J774 cells after 24 hrs by MTT assay; conditions: J774, 24 h
[4] = system: J774; assay: Antiproliferative activity against mouse J774 cells after 48 hrs by MTT assay; conditions: J774, 48 h
[5] = system: J774; assay: Antiproliferative activity against mouse J774 cells after 72 hrs by MTT assay; conditions: J774, 72 h
[6] = system: WEHI-164; assay: Cytotoxicity against mouse WEHI164 cells after 24 hrs by MTT assay; conditions: WEHI-164, 24 h
[7] = system: WEHI-164; assay: Antiproliferative activity against mouse WEHI164 cells after 48 hrs by MTT assay; conditions: WEHI-164, 48 h
[8] = system: WEHI-164; assay: Antiproliferative activity against mouse WEHI164 cells after 72 hrs by MTT assay; conditions: WEHI-164, 72 h
[9] = system: P388; assay: Cytotoxicity against mouse P388 cells after 24 hrs by MTT assay; conditions: P388, 24 h
[10] = system: P388; assay: Antiproliferative activity against mouse P388 cells after 48 hrs by MTT assay; conditions: P388, 48 h
[11] = system: P388; assay: Antiproliferative activity against mouse P388 cells after 72 hrs by MTT assay; conditions: P388, 72 h
[12] = system: IGR-1; assay: Cytotoxicity against human IGR-1 cells after 24 hrs by MTT assay; conditions: IGR-1, 24 h

| Compound | IC50 [1] [µg/mL] | IC50 [2] [µg/mL] | IC50 [3] [µg/mL] | IC50 [4] [µg/mL] | IC50 [5] [µg/mL] | IC50 [6] [µg/mL] | IC50 [7] [µg/mL] | IC50 [8] [µg/mL] | IC50 [9] [µg/mL] | IC50 [10] [µg/mL] | IC50 [11] [µg/mL] | IC50 [12] [µg/mL] |
| --- | --- | --- | --- | --- | --- | --- | --- | --- | --- | --- | --- | --- |
| C[C@@H]1CC[C@@]2(OC1)O[C@H]1C[C@H]3[C@@H]4C[C@@H](O)[C@H]5C[C@@H](O)[C@H](O)C[C@]5(C)[C@H]4CC[C@]3(C)[C@H]1[C@@H]2C [AGIGENIN] | 627 (≈ 1400 µM) | 264 (≈ 588 µM) | 896 (≈ 2000 µM) | 655 (≈ 1460 µM) | 321 (≈ 715 µM) | 836 (≈ 1860 µM) | 548 (≈ 1220 µM) | 210 (≈ 468 µM) | 609 (≈ 1360 µM) | 471 (≈ 1050 µM) | 354 (≈ 789 µM) |  |
| Sc1ncnc2nc[nH]c12 [MERCAPTOPURINE ANHYDROUS] | 12.3 (≈ 80.8 µM) | 1.1 (≈ 7.23 µM) | 61 (≈ 401 µM) | 3.6 (≈ 23.7 µM) | 0.5 (≈ 3.29 µM) | 83 (≈ 545 µM) | 42 (≈ 276 µM) | 2.7 (≈ 17.7 µM) | 37 (≈ 243 µM) | 2.1 (≈ 13.8 µM) | 0.3 (≈ 1.97 µM) | 51.7 (≈ 340 µM) |
| C[C@@H]1CC[C@@]2(OC1)O[C@H]1C[C@H]3[C@@H]4C[C@@H](O)[C@H]5C[C@@H](O)[C@@H](O)C[C@]5(C)[C@H]4CC[C@]3(C)[C@H]1[C@@H]2C [PORRIGENIN A] | 471 (≈ 1050 µM) | 184 (≈ 410 µM) | 754 (≈ 1680 µM) | 515 (≈ 1150 µM) | 270 (≈ 602 µM) |  | 277 (≈ 617 µM) | 110 (≈ 245 µM) | 617 (≈ 1380 µM) | 270 (≈ 602 µM) | 115 (≈ 256 µM) | 942 (≈ 2100 µM) |
| C[C@@H]1CC[C@@]2(OC1)O[C@H]1C[C@H]3[C@@H]4C[C@@H](O)[C@H]5C[C@@H](O)C(=O)C[C@]5(C)[C@H]4CC[C@]3(C)[C@H]1[C@@H]2C [PORRIGENIN B] | 330 (≈ 739 µM) | 45 (≈ 101 µM) | 552 (≈ 1240 µM) | 111 (≈ 249 µM) | 51 (≈ 114 µM) | 655 (≈ 1470 µM) | 344 (≈ 770 µM) | 92 (≈ 206 µM) | 837 (≈ 1870 µM) | 185 (≈ 414 µM) | 74 (≈ 166 µM) | 823 (≈ 1840 µM) |
